Measurements reported in US4734409A, “Cephalosporin derivative, process for producing the same and pharmaceutical composition containing the same” (Kureha Kagaku Kogyo Kabushiki Kaisha, priority 1984, dated 1988).

How the values were obtained:
[1] = tested on: Pseudomonas aeruginosa; test: Effect on the intestinal bacterial colonies: P. aeruginosa in feces; assay type: in vivo, Pseudomonas aeruginosa (feces of female ICR-JCL mice); settings: after administration; 100 mg/kg orally once a day, 2 days; before administration <3.0
Method: (§1) Effect of the present compound on the intestinal bacterial colonies was examined as follows.
(§2) The present compound prepared in Example 2 was orally administered to each of 5 animals of a group of female ICR-JCL mice of 6-weeks-old at a daily dosage of 100 mg/kg once a day for continuous 2 days. Feces of each of the mice were collected before and after one day of the administration, and after diluting thereof with 100 times by weight of an anaerobic diluent (an aqueous phosphoric acid buffer) the thus diluted feces were ground, and 0.1 ml of the thus ground and diluted feces was smeared on each culture medium for each bacterial species (shown in Table 1).
(§3) After incubating the thus prepared culture media at 25° C. for one to five days aerobically in the cases of Escherichia coli, Pseudomonas aeruginosa and the Streptococcus species or anaerobically in the cases of the Lactobacillus acidophilus, Lactobacillus bifidus and the Bacterioides species, the number of each bacteria proliferating on the culture medium was counted.
(2) Pseudomonas aeruginosa

[2] = tested on: Lactobacillus acidophilus; test: Effect on the intestinal bacterial colonies: L. acidophilus in feces; assay type: in vivo, Lactobacillus acidophilus (feces of female ICR-JCL mice); settings: after administration; 100 mg/kg orally once a day, 2 days; before administration 9.0
Method: as §1, §2, §3
(4) Lactobacillus acidophilus
LBS anaerobic, 37° C., 5 days

[3] = tested on: Bacteroides sp.; test: Effect on the intestinal bacterial colonies: Bacteroides sp. in feces; assay type: in vivo, Bacteroides sp. (feces of female ICR-JCL mice); settings: after administration; 100 mg/kg orally once a day, 2 days; before administration 8.3
Method: as §1, §2, §3

[4] = in vitro; assay type: in vitro ADME, Staphylococcus aureus; settings: rat, s9
Method: As a model experiment for verifying the stability of the present compound in Example 1 in the living body, the following procedures were adopted. The same test solution of the present compound as in Example 6 was prepared by mixing 0.1 ml of the dispersion of the present compound and 0.9 ml of S-9 mix, and shaking the mixture for 20 min at 37° C. As a control, a mixture of 0.1 ml of the dispersion of the present compound and 0.9 ml of the 0.2M phosphoric acid buffer was shaken for 20 min at 37° C. As the test bacteria, Staphylococcus aureus IAM 1011 was inoculated in Mueller-Hinton culture medium, and after incubating the inoculum for 18 hours at 37° C., the number of bacteria in the medium was adjusted to 10^8 /ml and the thus adjusted, cultured medium was mixed with 50 times by volume of Mueller-Hinton culture medium. After preparing an agar plate from the mixture, a penicillin cup of 8 mm in diameter was placed on the agar plate, and 0.1 ml of the test solution prepared above was put into the cup. After leaving the thus prepared agar plate for 2 hours at 4° C., the agar plate was subjected to culture for 18 hours at 37° C. to measure the diameter of a proliferation-inhibiting circle appearing on the agar plate. From a calibration curve preliminarily prepared between the concentration of the present compound and the diameter of the proliferation-inhibiting circle, the concentration of the present compound in the test solution and the control was obtained. By using the thus obtained concentration, the rate of retaining the antibacterial activity (Rate (%)) was calculated from the following formula and is shown in Table 5. [formula] As a comparative experiment, the same precedures were carried out except for using Cefotax (a commercialized cephalosporin derivative sold by CHUGAI Pharmaceuticla Co., Ltd., which is represented by the following formula), [drawing 21] instead of the present compound produced in Example 1.

SMILES	Logarithmic value of the number of bacterial cells per one gram of feces, (2) P. aeruginosa [1]	Logarithmic value of the number of bacterial cells per one gram of feces, (4) L. acidophilus [2]	Logarithmic value of the number of bacterial cells per one gram of feces, (6) Bacteroides sp. [3]	remaining at 20 min [4] [%]
CO/N=C(\C(=O)N[C@@H]1C(=O)N2C(C(=O)OCOC(=O)C(C)(C)C)=C(CSc3nnc(C)s3)CS[C@H]12)c1csc(NC(=O)C(Cl)Cl)n1 [Example 2]	< 3.0 Logarithmic value of the number of bacterial cells per one gram of feces	8.9 Logarithmic value of the number of bacterial cells per one gram of feces	8.2 Logarithmic value of the number of bacterial cells per one gram of feces	–
CO/N=C(\C(=O)N[C@@H]1C(=O)N2C(C(=O)O)=C(CSc3nnc(C)s3)CS[C@H]12)c1csc(NC(=O)C(Cl)Cl)n1 [Example 1, 7β-[2-(2-dichloroacetamido-4-thiazolyl)-(Z)-2-methoxyiminoacetamido]-3-[(2-methyl-1,3,4-thiadiazol-5-yl)thiomethyl]-3-cephem-4-carboxylic acid]	–	–	–	90
